Assay results from patent US8969395B2, “Triterpenoid derivatives useful as antiproliferative agents” (Universidade de Coimbra, priority 2009, dated 2015).

How the values were obtained:
[1] = test system: LNCaP (human prostate adenocarcinoma); test: Cytotoxic activity, LNCaP; format: cell-based; details: mean ±SD
Experimental: (§1) Compounds presented in Table 6 were also tested in the following cell lines: PC-3 (human prostate adenocarcinoma), LNCaP (human prostate adenocarcinoma), LAPC4 (human prostate adenocarcinoma) and HT-29 (human colon adenocarcinoma).

[2] = test system: LAPC4 (human prostate adenocarcinoma); test: Cytotoxic activity, LAPC4; format: cell-based; details: mean ±SD
Experimental: as §1

[3] = test system: PC-3 (human prostate adenocarcinoma); test: Cytotoxic activity, PC-3; format: cell-based; details: mean ±SD
Experimental: as §1

HepG2 cells = test: Cell cycle analysis by flow cytometry (FACS, PI), HepG2; format: cell-based, human; details: for Phase of cell cycle (% of cells) G0/G1 / Phase of cell cycle (% of cells) G2/M / Phase of cell cycle (% of cells) S: HepG2, compound at its IC50, 72 h; for decrease in the percentage of cells in the G0/G1 phase / increase in the population in S phase: HepG2, with respect to untreated cells, at IC50, 72 h
Experimental: The effects on the cell cycle of some of these compounds were assessed through flow cytometry by using a fluorescence-activated cell sorter (FACS) (Table 5 below). For this assay 2.3×10^5 HepG2 cells/well, 2.9×10^4 HeLa cells/well, 1.6×10^5 Jurkat cells/well and 1.4×10^5 Chang liver cells/well were plated in 6 well plates with 2 ml of medium. The number of cells was determined by the relationship number of cells/area wells, considering the number of cells that were cultured in 96-well plates. […] Chang liver cells were incubated with compounds 20, […] at concentrations corresponding to the IC80 determined for HepG2 at 72 h. Following 72 h. of incubation, cells were harvested by mild trypsinization, collected by centrifugation and stained in ice-cold Tris-buffered saline (TBS), containing 1 mg/ml PI, 10 mg/ml RNAse free of DNAase and 0.1% Igepal CA-630 for 1 h at 4° C. FACS analysis was carried out at 488 nm in an Epics XL flow cytometer (Coulter Corporation, Hialeah, Fla.). Data from 8×10^3 cells were collected and analyzed using Multicycle program (Phoenix Flow Systems, San Diego, Calif.). All experiments were performed three times with three replicates per experiment. […] To explore the selectivity of the effect on tumor cells, we also tested compounds 20, 44 and 46 in a non-malignant cell line. Chang liver cells were treated with the compounds at the IC80 values determined for HepG2 after 72 h of incubation and no effect was observed, indicating a selective effect of these agents (Table 5 below).

## C=C(C)[C@@H]1CC[C@]2(CO)CC[C@]3(C)[C@H](CC[C@@H]4[C@@]5(C)CC[C@H](OC(=O)n6ccnc6)C(C)(C)[C@@H]5CC[C@]43C)[C@@H]12 [Compound 20, 28-hydroxy-lup-20(29)-en-3β-yl-1H-imidazole-1-carboxylate]
[1]
  IC50: 15 ± 1.8 µM
[2]
  IC50: 16.4 ± 2.1 µM
[3]
  IC50: 9.2 ± 0.7 µM
HepG2 cells
  Phase of cell cycle (% of cells) G0/G1: 49.4 ± 1.2 % of cells
  Phase of cell cycle (% of cells) G2/M: 14.5 ± 0.8 % of cells
  Phase of cell cycle (% of cells) S: 36.1 ± 0.8 % of cells
  decrease in the percentage of cells in the G0/G1 phase: 12%
  increase in the population in S phase: 17%

## C=C(C)[C@@H]1CC[C@]2(C(=O)n3ccnc3)CC[C@]3(C)[C@H](CC[C@@H]4[C@@]5(C)CCC(=O)C(C)(C)[C@@H]5CC[C@]43C)[C@@H]12 [Compound 44, 28-(1H-imidazol-1-yl)-lup-20(29)-en-3,28-dione]
[1]
  IC50: 13.7 ± 0.5 µM
[2]
  IC50: 17.2 ± 2.3 µM
[3]
  IC50: 6.9 ± 1.1 µM
HepG2 cells
  Phase of cell cycle (% of cells) G0/G1: 45.6 ± 2.1 % of cells
  Phase of cell cycle (% of cells) G2/M: 14.9 ± 1.4 % of cells
  Phase of cell cycle (% of cells) S: 39.6 ± 3.6 % of cells
  decrease in the percentage of cells in the G0/G1 phase: 16%
  increase in the population in S phase: 20%

## C=C(C)[C@@H]1CC[C@]2(C(=O)n3ccnc3)CC[C@]3(C)[C@H](CC[C@@H]4[C@@]5(C)C=CC(=O)C(C)(C)[C@@H]5CC[C@]43C)[C@@H]12 [Compound 46, 28-(1H-imidazol-1-yl)-lup-1,20 (29)-dien-3,28-dione]
HepG2 cells
  Phase of cell cycle (% of cells) G0/G1: 54.7 ± 1.5 % of cells
  Phase of cell cycle (% of cells) G2/M: 14.3 ± 1.0 % of cells
  Phase of cell cycle (% of cells) S: 30.7 ± 0.6 % of cells
  decrease in the percentage of cells in the G0/G1 phase: 7%
  increase in the population in S phase: 12%
